# Reference: US8686150B2 (Sanofi, priority 2011, dated 2014)
# Biological target: T1, human full-length recombinant PKC βII (Homo sapiens, UniProt P05771)
# T1 construct: Active human full-length recombinant PKC βII; purchased Invitrogen GmbH, Darmstadt, Germany
# Experiment: Determination of PKC βII inhibition (Caliper mobility-shift kinase assay, Fluorescein-RFARKGSLRQKNV peptide substrate)
# Format: biochemical
# Conditions: example compounds at a final concentration of 1.14 μM (±0.15 μM)
# Outline: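 Full-length PKC βII (30 ng/ml in pre-dilution) with PS/DAG/Ca2+ activators, pH 7.4; fluorescein peptide and ATP at 3 μM and 120 μM before mixing. Reaction ran 60 min at 32 °C, was EDTA-stopped, and was read by mobility shift. % inhibition came from product/(substrate+product) peak heights, tested at 1.14 μM final.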
# T1 sequence (P05771 1-673 isoform P05771-2): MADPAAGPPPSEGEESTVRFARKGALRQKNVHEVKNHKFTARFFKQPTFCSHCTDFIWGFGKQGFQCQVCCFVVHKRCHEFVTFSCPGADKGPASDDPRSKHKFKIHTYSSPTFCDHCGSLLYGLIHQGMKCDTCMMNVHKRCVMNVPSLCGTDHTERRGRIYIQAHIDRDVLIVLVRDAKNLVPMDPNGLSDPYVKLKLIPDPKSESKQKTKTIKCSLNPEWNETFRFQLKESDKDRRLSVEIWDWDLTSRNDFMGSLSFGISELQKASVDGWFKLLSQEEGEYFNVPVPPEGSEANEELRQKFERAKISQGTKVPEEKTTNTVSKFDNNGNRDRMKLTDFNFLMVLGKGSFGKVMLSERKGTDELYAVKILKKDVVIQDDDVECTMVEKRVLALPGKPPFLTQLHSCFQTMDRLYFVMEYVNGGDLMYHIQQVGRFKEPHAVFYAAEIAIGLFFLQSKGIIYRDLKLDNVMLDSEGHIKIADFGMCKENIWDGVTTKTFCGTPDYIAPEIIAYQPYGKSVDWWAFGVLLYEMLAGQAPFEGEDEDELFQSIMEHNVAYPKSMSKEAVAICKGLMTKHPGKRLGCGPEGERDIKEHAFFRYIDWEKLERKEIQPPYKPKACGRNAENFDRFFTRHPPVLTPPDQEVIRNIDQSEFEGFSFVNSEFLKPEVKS
row,inhibition at 1.14 µM,SMILES
1,92%,"Cc1cc(O)ccc1-c1cc(C(=O)N2CCN[C@@H](C)C2)c2c(C)n[nH]c2n1 [Example 145, [6-(4-Hydroxy-2-methyl-phenyl)-3-methyl-1H-pyrazolo[3,4-b]pyridin-4-yl]-((S)-3-methyl-piperazin-1-yl)-methanone]"
2,99%,"Cc1cc(O)ccc1-c1cc(C(=O)N2CCNCC2c2cccc(F)c2F)c2c(C)n[nH]c2n1 (stereo not drawn) [Example 139, [2-(2,3-Difluoro-phenyl)-piperazin-1-yl]-[6-(4-hydroxy-2-methyl-phenyl)-3-methyl-1H-pyrazolo[3,4-b]pyridin-4-yl]-methanone]"
3,63%,"Cc1n[nH]c2nc(-c3ccc(O)cc3)cc(C(=O)N(CCc3ccccc3)[C@@H]3CCCNC3)c12 [Example 22, 6-(4-Hydroxy-phenyl)-3-methyl-1H-pyrazolo[3,4-b]pyridine-4-carboxylic acid phenethyl-(R)-piperidin-3-yl-amide]"
4,34%,"Cc1n[nH]c2nc(-c3ccc(O)c(F)c3)cc(C(=O)N3CC4CCCN4CC3c3ccccc3)c12 (stereo not drawn) [Example 369, [6-(3-Fluoro-4-hydroxy-phenyl)-3-methyl-1H-pyrazolo[3,4-b]pyridin-4-yl]-(3-phenyl-hexahydro-pyrrolo[1,2-a]pyrazin-2-yl)-methanone]"
5,98%,"COc1ccc(C2CNCCN2C(=O)c2cc(-c3ccc(O)cc3C)nc3[nH]nc(C)c23)cc1 (stereo not drawn) [Example 140, [6-(4-Hydroxy-2-methyl-phenyl)-3-methyl-1H-pyrazolo[3,4-b]pyridin-4-yl]-[2-(4-methoxy-phenyl)-piperazin-1-yl]-methanone]"
6,97%,"Cc1n[nH]c2nc(-c3ccc(O)cc3Cl)cc(C(=O)N3CCNCC3)c12 [Example 6, [6-(2-Chloro-4-hydroxy-phenyl)-3-methyl-1H-pyrazolo[3,4-b]pyridin-4-yl]-piperazin-1-yl-methanone]"
7,86%,"Cc1ccc(C(CN)NC(=O)c2cc(-c3ccc(O)cc3)nc3[nH]nc(C)c23)cc1 (stereo not drawn) [Example 52, 6-(4-Hydroxy-phenyl)-3-methyl-1H-pyrazolo[3,4-b]pyridine-4-carboxylic acid (2-amino-1-p-tolyl-ethyl)-amide]"
8,92%,"Cc1n[nH]c2nc(-c3ccc(O)c(F)c3)cc(C(=O)NC3CC4(CCNCC4)c4ccccc43)c12 (stereo not drawn) [Example 299, 6-(3-Fluoro-4-hydroxy-phenyl)-3-methyl-1H-pyrazolo[3,4-b]pyridine-4-carboxylic acid (2,3-dihydro-spiro[1H-indene-1,4′-piperidin]-3-yl)-amide]"
9,99%,"CCC1CN(C(=O)c2cc(-c3ccc(O)cc3F)nc3[nH]nc(C)c23)C(CC)CN1 (stereo not drawn) [Example 445, (2,5-Diethyl-piperazin-1-yl)-[6-(2-fluoro-4-hydroxy-phenyl)-3-methyl-1H-pyrazolo[3,4-b]pyridin-4-yl]-methanone]"
10,41%,"O=C(NC1CNC1)c1cc(-c2ccc(O)cc2)nc2[nH]nc(C(F)(F)F)c12 [Example 402, 6-(4-Hydroxy-phenyl)-3-trifluoromethyl-1H-pyrazolo[3,4-b]pyridine-4-carboxylic acid azetidin-3-ylamide]"
11,91%,"CC1(C)CNCCN1C(=O)c1cc(-c2ccc(O)cc2)nc2[nH]nc(C3CC3)c12 [Example 157, [3-Cyclopropyl-6-(4-hydroxy-phenyl)-1H-pyrazolo[3,4-b]pyridin-4-yl]-(2,2-dimethyl-piperazin-1-yl)-methanone]"
12,92%,"Cc1n[nH]c2nc(-c3ccc(O)cc3)cc(C(=O)N3CC4CC3CN4)c12 (stereo not drawn) [Example 19, 2,5-Diaza-bicyclo[2.2.1]hept-2-yl-[6-(4-hydroxy-phenyl)-3-methyl-1H-pyrazolo[3,4-b]pyridin-4-yl]-methanone]"
13,95%,"Cc1n[nH]c2nc(-c3ccc(O)cc3)cc(C(=O)NC3(C)CCNCC3)c12 [Example 41, 6-(4-Hydroxy-phenyl)-3-methyl-1H-pyrazolo[3,4-b]pyridine-4-carboxylic acid (4-methyl-piperidin-4-yl)-amide]"
14,86%,"Cc1n[nH]c2nc(-c3ccc(O)cc3)cc(C(=O)N3CCC4(CCNC4)C3)c12 (stereo not drawn) [Example 256, (2,7-Diaza-spiro[4.4]non-2-yl)-[6-(4-hydroxy-phenyl)-3-methyl-1H-pyrazolo[3,4-b]pyridin-4-yl]-methanone]"
15,69%,"Cc1n[nH]c2nc(-c3cc(F)c(O)c(F)c3)cc(C(=O)N3CCNC[C@@H]3C)c12 [Example 16, [6-(3,5-Difluoro-4-hydroxy-phenyl)-3-methyl-1H-pyrazolo[3,4-b]pyridin-4-yl]-((S)-2-methyl-piperazin-1-yl)-methanone]"
16,52%,"Cc1n[nH]c2nc(-c3ccc(O)cc3)cc(C(=O)NCCN3CCCC3)c12 [Example 35, 6-(4-Hydroxy-phenyl)-3-methyl-1H-pyrazolo[3,4-b]pyridine-4-carboxylic acid (2-pyrrolidin-1-yl-ethyl)-amide]"
17,69%,"Cc1n[nH]c2nc(-c3ccc(O)cc3)cc(C(=O)NCCC(C)(C)N)c12 [Example 129, 6-(4-Hydroxy-phenyl)-3-methyl-1H-pyrazolo[3,4-b]pyridine-4-carboxylic acid (3-amino-3-methyl-butyl)-amide]"
18,99%,"Cc1n[nH]c2nc(-c3ccc(O)cc3F)cc(C(=O)N3CC(C)(C)NCC34CCCC4)c12 [Example 437, (8,8-Dimethyl-6,9-diaza-spiro[4.5]dec-6-yl)-[6-(2-fluoro-4-hydroxy-phenyl)-3-methyl-1H-pyrazolo[3,4-b]pyridin-4-yl]-methanone]"
19,93%,"Cc1n[nH]c2nc(-c3ccc(O)cc3)cc(C(=O)N3CCCC4CNCCC43)c12 (stereo not drawn) [Example 230, [6-(4-Hydroxy-phenyl)-3-methyl-1H-pyrazolo[3,4-b]pyridin-4-yl]-(octahydro-[1,6]naphthyridin-1-yl)-methanone]"
20,84%,"Cc1n[nH]c2nc(-c3ccc(O)c(F)c3)cc(C(=O)N3CC4CNCC4C3)c12 (stereo not drawn) [Example 289, [6-(3-Fluoro-4-hydroxy-phenyl)-3-methyl-1H-pyrazolo[3,4-b]pyridin-4-yl]-(hexahydro-pyrrolo[3,4-c]pyrrol-2-yl)-methanone]"
21,47%,"CCN1CCCN(C(=O)c2cc(-c3ccc(O)c(F)c3)nc3[nH]nc(C)c23)CC1 [Example 366, (4-Ethyl-[1,4]diazepan-1-yl)-[6-(3-fluoro-4-hydroxy-phenyl)-3-methyl-1H-pyrazolo[3,4-b]pyridin-4-yl]-methanone]"
22,82%,"CCc1n[nH]c2nc(-c3ccc(O)cc3)cc(C(=O)N3CCNCC3)c12 [Example 3, [3-Ethyl-6-(4-hydroxy-phenyl)-1H-pyrazolo[3,4-b]pyridin-4-yl]-piperazin-1-yl-methanone]"
23,44%,"CCc1n[nH]c2nc(-c3ccc(O)cc3)cc(C(=O)NC3CCNC4(CCC4)C3)c12 (stereo not drawn) [Example 168, 3-Ethyl-6-(4-hydroxy-phenyl)-1H-pyrazolo[3,4-b]pyridine-4-carboxylic acid (5-aza-spiro[3.5]non-8-yl)-amide]"
24,95%,"Cc1n[nH]c2nc(-c3ccc(O)cc3)cc(C(=O)N3C[C@H](C)NC[C@H]3c3ccccc3)c12 [Example 459, [6-(4-Hydroxy-phenyl)-3-methyl-1H-pyrazolo[3,4-b]pyridin-4-yl]-((2R,5S)-5-methyl-2-phenyl-piperazin-1-yl)-methanone]"
